From patent publication US20120078529A1, “DETERMINING THE SEVERITY OF 5-FLUOROURACIL OVERDOSE” (WELLSTAT THERAPEUTICS CORPORATION, priority 2009, published 2012)
Entries after “also recorded” stand apart in the source; their conditions may differ. Read-outs that look alike come from different tables or passages of the source.

Experiments:
[1] = 5-fluorouracil toxicity severity score calculation; set-up: species or system human; conditions: base ten logarithms, dose in mg, administration rate in mg/hr
From the text: This invention provides a method of determining a 5-fluorouracil toxicity severity score for a patient receiving 5-fluorouracil, comprising calculating the square root of the sum of: (a) the square of the logarithm of the dose of 5-fluorouracil administered to the patient; and (b) the square of the logarithm of the administration rate of the 5-fluorouracil to the patient.
The severity score can be represented by the following equation:
Severity Score=[(log Dose)^2+(log Rate)^2]^1/2
Typically the logarithm is a base-ten logarithm (log10):
ti Severity Score=[(log10 Dose)^2+(log10 Rate)^2]^1/2
In accordance with this invention the dose and the dose rate can be expressed in any units, including all units that are conventional for expressing drug doses and dose rates. […] Whether they should receive vistonuridine should be evaluated on a case-by-case basis by the patient's physician. When units other than milligrams and mg/hr are utilized or a power relationship other than log10 is utilized in the calculation, the severity score will have a different numerical value and the skilled artisan can readily calculate the corresponding cut-offs distinguishing among lethal, seriously toxic but nonlethal, and nontoxic, doses. […]

5FU overdose [2] = conditions: cited from earlier work
[3] = cited from earlier work
lethal 5FU overdose = assay: Vistonuridine antidote after lethal 5FU overdose in mice; assay type: in vivo
Description: Uridine is a specific pharmacologic antidote for 5FU poisoning. It reduces 5FU toxicity when taken up prior to the onset of cell death. However uridine has poor oral bioavailability (about 7%). Vistonuridine (chemical name: 2′,3′,5′-tri-O-acetyluridine) is an oral prodrug of uridine. […] Vistonuridine is rapidly converted to circulating uridine by deacetylation (FIG. 2). It is an effective antidote against 5FU poisoning when administered up to 48 hours or more after a lethal 5FU overdose in mice, and up to 96 hours or more in humans. (See Example 1 below).

5FU overdose [4] = assay: Patients overdosed with 5FU treated with vistonuridine as an antidote; assay type: in vivo, human
Description: Seventeen patients overdosed with 5FU have been treated with vistonuridine as an antidote. Patients received vistonuridine (10 g q6h for 20 doses) beginning 8 to 96 hours after overdose. Data from 13 patients with similar 5FU overdoses provide the time course and outcomes for patients receiving available supportive care without vistonuridine. A severity score, integrating dose and infusion rate, was calculated for all the patients, and this tool could be used by healthcare workers to determine the expected severity and outcome of a 5FU overdose.
Wellstat Therapeutics Corporation was contacted by physicians of patients who had received 5FU overdoses, most due to infusion pump errors. Emergency Investigational New Drug approvals (INDs) were obtained from the U.S. Food and Drug Administration (FDA), and vistonuridine was promptly shipped or couriered to the clinics. Patients received vistonuridine beginning 8 to 96 hours after 5FU.

[5] = cited from earlier work; remark: listed apart in the source

O=c1[nH]cc(F)c(=O)[nH]1 [5FU, 5-Fluorouracil]
Severity score that indicates a lethal dose [1]: ≥ 4.5
Outcome of the 11 literature-reported 5FU overdose cases with predicted death (5FU overdose [2]; 11 cases, available supportive care, no vistonuridine): die from the overdose
Observed Outcome (5FU overdose [2]; individual 5FU overdose patient, best supportive care without vistonuridine): Death; also recorded: Recovered
Patients receiving 5FU who will develop a toxic reaction ([3]; about 275,000 US cancer patients receive 5FU annually, NIH estimate): about 3%
Patients who die each year from 5FU overexposure ([3]; human, in vivo): more than 1300 patients

CC(=O)OC[C@H]1O[C@@H](n2ccc(=O)[nH]c2=O)[C@H](OC(C)=O)[C@@H]1OC(C)=O [Vistonuridine, 2′,3′,5′-tri-O-acetyluridine]
Time after lethal 5FU overdose at which the antidote is still effective (lethal 5FU overdose): ≥ 48 h
Outcome of all 17 overdose patients treated with vistonuridine (5FU overdose [4]; 17 patients, most with relatively modest toxicity): recovered fully
Time after 5FU overdose at which the antidote is still effective (5FU overdose [4]; humans): ≥ 96 h
Observed Outcome (5FU overdose [4]; individual 5FU overdose patient, vistonuridine 10 g q6 hr for 20 doses beginning 8 to 96 hours after the 5FU overdose): Recovered

O=c1ccn([C@@H]2O[C@H](CO)[C@@H](O)[C@H]2O)c(=O)[nH]1 [uridine, Uridine]
Oral bioavailability [5]: about 7%
